Experimental data: patent US9469650B2, “Melampomagnolide B derivatives” (BOARD OF TRUSTEES OF THE UNIVERSITY OF ARKANSAS, priority 2013, dated 2016)

Key:
A498 = assay: panel of 60 human tumor cell lines, growth inhibition (Renal Cancer); details: Homo sapiens
HS 578T = assay: panel of 60 human tumor cell lines, growth inhibition (Breast Cancer); details: Homo sapiens, Hs-578T
MOLT-4 = assay: panel of 60 human tumor cell lines, growth inhibition (Leukemia); details: Homo sapiens
PC-3 = assay: panel of 60 human tumor cell lines, growth inhibition (Prostate Cancer); details: Homo sapiens
MDA-MB-468 = assay: panel of 60 human tumor cell lines, growth inhibition (Breast Cancer); details: Homo sapiens
NCI-H460 = assay: panel of 60 human tumor cell lines, growth inhibition (Non-Small Cell Lung Cancer); details: Homo sapiens
HOP-62 = assay: as above; details: Homo sapiens
NCI-H226 = assay: as above; details: Homo sapiens
786-0 = assay: panel of 60 human tumor cell lines, growth inhibition (Renal Cancer); details: Homo sapiens
DU-145 = assay: panel of 60 human tumor cell lines, growth inhibition (Prostate Cancer); details: Homo sapiens
U251 = assay: panel of 60 human tumor cell lines, growth inhibition (CNS Cancer); details: Homo sapiens
UACC-257 = assay: panel of 60 human tumor cell lines, growth inhibition (Melanoma)
SK-MEL-5 = assay: as above; details: Homo sapiens
HOP-92 = assay: panel of 60 human tumor cell lines, growth inhibition (Non-Small Cell Lung Cancer); details: Homo sapiens
T-47D = assay: panel of 60 human tumor cell lines, growth inhibition (Breast Cancer); details: Homo sapiens, T47D

Question: What does the source list for `C=C1C(=O)O[C@H]2[C@H]1CC/C(COC(=O)Nc1n[nH]c(SC)n1)=C\CC[C@@]1(C)O[C@@H]21` [JVM 64, ((1aR,7aS,10aS,10bS,E)-1a-methyl-8-methylene-9-oxo-1a,2,3,6,7,7a,8,9,10a,10b-decahydrooxireno[2′,3′:9,10]cyclodeca[1,2-b]furan-5-yl)methyl-(5-(methylthio)-1H-1,2,4-triazol-3-yl)carbamate]?
Answer: GI50 (A498; A498): 2.56 µM; CC50 (A498; A498, read-out: LC50): 27.8 µM; IC (TGI) (A498; A498, read-out: TGI): 7.67 µM; GI50 (HS 578T): 2.44 µM; CC50 (HS 578T; read-out: LC50): > 100 µM; IC (TGI) (HS 578T; read-out: TGI): 8.75 µM; GI50 (MOLT-4; MOLT-4): 2.32 µM; CC50 (MOLT-4; MOLT-4, read-out: LC50): 88.5 µM; IC (TGI) (MOLT-4; MOLT-4, read-out: TGI): 6.59 µM; GI50 (PC-3; PC-3): 8.51 µM; CC50 (PC-3; PC-3, read-out: LC50): 77 µM; IC (TGI) (PC-3; PC-3, read-out: TGI): 26.8 µM; GI50 (MDA-MB-468; MDA-MB-468): 1.29 µM; CC50 (MDA-MB-468; MDA-MB-468, read-out: LC50): 21.8 µM; IC (TGI) (MDA-MB-468; MDA-MB-468, read-out: TGI): 4.04 µM; GI50 (NCI-H460; NCI-H460): 4.03 µM; CC50 (NCI-H460; NCI-H460, read-out: LC50): > 100 µM; IC (TGI) (NCI-H460; NCI-H460, read-out: TGI): 18.9 µM; GI50 (HOP-62; HOP-62): 6.45 µM; CC50 (HOP-62; HOP-62, read-out: LC50): 64.9 µM; IC (TGI) (HOP-62; HOP-62, read-out: TGI): 22.3 µM; GI50 (NCI-H226; NCI-H226): 10.2 µM; CC50 (NCI-H226; NCI-H226, read-out: LC50): 99.7 µM; IC (TGI) (NCI-H226; NCI-H226, read-out: TGI): 31.9 µM; GI50 (786-0; 786-0): 1.66 µM; CC50 (786-0; 786-0, read-out: LC50): 7.2 µM; IC (TGI) (786-0; 786-0, read-out: TGI): 3.45 µM; GI50 (DU-145; DU-145): 3.49 µM; CC50 (DU-145; DU-145, read-out: LC50): 38.4 µM; IC (TGI) (DU-145; DU-145, read-out: TGI): 13.1 µM; GI50 (U251; U-251): 3.62 µM; CC50 (U251; U-251, read-out: LC50): 51 µM; IC (TGI) (U251; U-251, read-out: TGI): 15.8 µM; GI50 (UACC-257; Homo sapiens, UACC-257): 1.66 µM; CC50 (UACC-257; Homo sapiens, UACC-257, read-out: LC50): 31.9 µM; Percent Growth (UACC-257; UACC-257, Log10 Concentration −4.0): −80%; Percent Growth (UACC-257; UACC-257, Log10 Concentration −5.0): −20%; Percent Growth (UACC-257; UACC-257, Log10 Concentration −6.0): 70%; Percent Growth (UACC-257; UACC-257, Log10 Concentration −7.0): 93%; Percent Growth (UACC-257; UACC-257, Log10 Concentration −8.0): 102%; TGI (UACC-257; UACC-257, NCI five dose): 6.02E−6; GI50 (SK-MEL-5; SK-MEL-5): 3.13 µM; CC50 (SK-MEL-5; SK-MEL-5, read-out: LC50): 37.5 µM; IC (TGI) (SK-MEL-5; SK-MEL-5, read-out: TGI): 12.4 µM; GI50 (HOP-92; HOP-92, HOP-92, 5-dose assay): 0.65 µM; GI50 (HOP-92; HOP-92, HOP-92, NCI five dose): 0.655 µM; GI50 (HOP-92; HOP-92, non-small cell lung cancer cell line HOP-92): 0.65 µM; CC50 (HOP-92; HOP-92, read-out: LC50): 20.4 µM; IC (TGI) (HOP-92; HOP-92, read-out: TGI): 3.84 µM; GI50 (T-47D): 2.23 µM; CC50 (T-47D; read-out: LC50): 70.9 µM; IC (TGI) (T-47D; read-out: TGI): 5.31 µM
